For 5 compounds, IC50 and CC50 results are on record in ChEMBL document CHEMBL2321716, “Exploring a new frontier in cancer treatment: targeting the ubiquitin and ubiquitin-like activating enzymes” (J Med Chem, 2013).

Experiment [1] can be described thus: Inhibition of N-terminal GST-tagged human UAE-catalyzed UAE-Ub thioester intermediate formation expressed in HI5 insect cells after 5 mins by SDS-PAGE analysis.
A short description of experiment [2]: Inhibition of N-terminal GST-tagged human UAE-catalyzed [32P]-AMP:[a-32P]-ATP exchange expressed in HI5 insect cells by TLC analysis.
The nature of experiment [3]: Inhibition of N-terminal GST-tagged human UAE-catalyzed UAE-Ub thioester intermediate formation expressed in HI5 insect cells after 30 mins by immunoblotting analysis. A general note: In western blotting, separated proteins are transferred to a membrane and probed.
Experiment [4] can be described thus: Inhibition of mouse recombinant His6-tagged UAE-catalyzed UAE-Ub thioester intermediate formation expressed in insect cells by SDS-PAGE analysis.
For another experiment, the system named is DU-145. The experiment in a line: Cytotoxicity against human DU145 cells assessed as induction of cell death after 72 hrs by Alamar blue assay. The class given is functional. Conditions: DU-145, 72 h, read-out: LD50 (the source's name). Background: Alamar Blue is a resazurin reagent that responds to reducing activity.
The nature of experiment [5]: Cytotoxicity against human U226 cells assessed as induction of cell death after 72 hrs by Alamar blue assay. The class given is functional. Conditions: U226, 72 h, read-out: LD50 (the source's name).
Another experiment has as its system T47D. The experiment in a line: Cytotoxicity against human T47D cells assessed as induction of cell death after 72 hrs by Alamar blue assay. Format: functional. Conditions: read-out: LD50 (the source's name).
The subject of a further experiment is PPC-1. Nature of the experiment: Cytotoxicity against human PPC1 cells assessed as induction of cell death after 72 hrs by Alamar blue assay. To be noted: PPC-1, 72 h, read-out: LD50 (the source's name). Format: functional.
Experiment [6] in a line: Inhibition of GST-tagged human recombinant UAE-catalyzed UAE-Ub thioester intermediate formation after 30 mins by fluorescence assay.
The test system of the next experiment is FaDu. The experiment in a line: Cytotoxicity against human FADU cells assessed as induction of cell death after 72 hrs by Alamar blue assay. The class given is functional. Conditions: read-out: LD50 (the source's name).
The nature of experiment [7]: Cytotoxicity against human KMS11 cells assessed as induction of cell death after 72 hrs by Alamar blue assay. Format: functional. Conditions: KMS-11, 72 h, read-out: LD50 (the source's name).
In the next experiment the test system is HeLa. The experiment in a line: Cytotoxicity against human HeLa cells assessed as induction of cell death after 72 hrs by Alamar blue assay. The class given is functional. Conditions: read-out: LD50 (the source's name).
A further experiment has as its system HT-29. The experiment in a line: Cytotoxicity against human HT-29 cells assessed as induction of cell death after 72 hrs by Alamar blue assay. The class given is functional. To be noted: HT-29, 72 h, read-out: LD50 (the source's name).
Experiment [8] is described as follows: Cytotoxicity against human Leukemia cells assessed as induction of cell death after 72 hrs by Alamar blue assay. The class given is functional. Conditions: read-out: LD50 (the source's name).
A short description of experiment [9]: Cytotoxicity against human MDA468 cells assessed as induction of cell death after 72 hrs by Alamar blue assay. To be noted: MDA-MB-468, 72 h, read-out: LD50 (the source's name). Format: functional.
Experiment [10] in a line: Cytotoxicity against human OVACR3 cells assessed as induction of cell death after 72 hrs by Alamar blue assay. To be noted: OVACR3, 72 h, read-out: LD50 (the source's name). The class given is functional.
The next experiment deals with LP-1. The experiment in a line: Cytotoxicity against human LP-1 cells assessed as induction of cell death after 72 hrs by Alamar blue assay. The class given is functional. Conditions: LP-1, 72 h, read-out: LD50 (the source's name).
Experiment [11] in a line: Inhibition of UAE-catalyzed UAE-Ub thioester intermediate formation in human RPE cells by immunoblotting analysis. Format: cell-based.
Experiment [12] can be described thus: Inhibition of UAE (unknown origin)-catalyzed UAE-Ub intermediate formation. More on the design: species or system Homo sapiens.

pIC50: −log10 of the molar value. Converted amounts (≈) assume the structure as drawn.

The pIC50 is −log10 of the IC50, conventionally taken in molar units. On to `CCCCCCCCCCNCCSSCc1ccc(Cl)cc1`, for which the pIC50 was 5.05 in experiment [1] and 4.89 in experiment [2].

Consider `CCOC(=O)c1ccc(N2NC(=O)/C(=C/c3ccc([N+](=O)[O-])o3)C2=O)cc1`, for which the pIC50 is above 5.00 in [3], 5.19 in experiment [2] and above 5.00 in experiment [4].

`O=C1NN(c2ccc(F)c(Cl)c2)C(=O)/C1=C\c1ccc([N+](=O)[O-])o1`: the CC50 in the experiment on DU-145 was 15 µM; in [5], at most 3 µM; with T47D, 15 µM; in the experiment with PPC-1 it was 15 µM; in the experiment with FaDu, 15 µM; in [7] it was at most 3 µM. The CC50 in the experiment on HeLa is 15 µM; in the experiment with HT-29, 15 µM; in [8], below 10 µM; in experiment [9], 15 µM; in [10], 15 µM; with LP-1, at most 3 µM. Besides, the pIC50 in [6] is 4.70.

As for `CCOC(=O)N1CCN(/[N+]([O-])=N/Oc2ccc([N+](=O)[O-])cc2[N+](=O)[O-])CC1`, the negative logarithm of the IC50 (pIC50) in experiment [11] was 5.70.

As usually defined, the IC50 is the concentration needed to halve the response being measured. A low value points to greater potency in that assay. Consider `CC(C)(O)/C=C/[C@@]12[C@H]3[C@@H](O)[C@@H]4O[C@@H]4[C@]1(O)OC(C)(C)[C@@H]2C=C1C(=O)[C@H]2O[C@H]2[C@H](O)[C@H]13` [PANEPOPHENANTHRIN], for which, in experiment [12], the IC50 stood at 17 µg/mL (≈ 40.4 µM).
